Here are results for 62 compounds from a melting point compilation (Tetko et al.; mined from patent text by program, amines drawn as free bases though some values may be those of a salt).

The melting point is the temperature, or range, at which the solid turns liquid.

Consider `CC(=O)c1cc([N+](=O)[O-])c(N)cc1C#N`, for which the melting point lay within 255 to 260 °C.

For `COC(=O)c1nc(-c2sccc2[N+](=O)[O-])n(C)c(=O)c1OC(=O)C(C)(C)C`, the melting point lay within 159 to 161 °C.

`O=C(O)COc1cc(F)ccc1C(=O)NCc1nc2cc(C(F)(F)F)ccc2s1` displayed a melting point of 206 to 208 °C.

`COc1cc(C(C)C)c2c(c1)S(=O)(=O)N(COc1cc(C(F)(F)F)nn1-c1cccc(C(F)(F)F)n1)C2=O` yielded a melting point of 149 to 150 °C.

For `CN(C(=O)Nc1ccccc1C=Cc1cc(C(C)(C)C)c(O)c(C(C)(C)C)c1)C1CCN(Cc2ccc(F)cc2)CC1`, the melting point was in the range of 174 to 175 °C.

`N#Cc1cnc(Nc2ccc(CCO)cc2)nc1-c1ccccc1` returned a melting point of 142 to 143 °C.

Take `Cn1ncc2c1-c1c(Oc3ccc(CC(=O)O)cc3)sc(C(N)=O)c1CC2`: the melting point lay in the range of 213 to 214 °C.

In the case of `Nc1nc2c([nH]c(=O)n2Cc2cccs2)c(=O)[nH]1`, the melting point was greater than 300 °C.

As for `O=C(O)c1ccc(Cc2ccc([N+](=O)[O-])cc2)cn1`, the melting point was in the range of 178 to 182 °C.

For `O=C(O)c1cc(Br)ccc1NCCC=C1c2ccccc2CCc2ccccc21`, the melting point is 226 to 227 °C.

The compound `O=C(Nc1cccc(S(=O)(=O)N2CCOCC2)c1)c1cnn2c(C(F)(F)F)cc(-c3ccc(Cl)c(Cl)c3)nc12` registered a melting point of 239 °C.

For `Nc1ccc2ncnc(Nc3cccc(C(F)(F)F)c3)c2c1`, the melting point lay in the range of 190 to 192 °C.

Regarding `Cc1sc(-c2cccs2)cc1Br`, the melting point lay in the range of 36 to 37 °C.

As for `COc1cc(N)c(Cl)cc1C(=O)N[C@H]1CCN(CC#N)C[C@H]1OC` (relative stereo), the melting point came to 130 °C.

As to `CCCCCCCCCCCCC(O)CNCCCCCCNCC(O)CCCCCCCCCCCC` (configuration not stated), the melting point lay within 118 to 121 °C.

In the case of `Cc1ccc(NC(=O)c2ccc(C3OCC(SC(C)C(O)(Cn4cncn4)c4ccc(F)cc4F)CO3)cc2)cc1` (configuration not stated), the melting point was 101 °C.

For the compound `CCCCOCCOc1ccc(-c2cc3c4c(c2)CCN4CCCC(C(=O)O)=C3)cc1`, the melting point lay in the range of 217 to 218 °C.

`CCc1nc2c(cnn2CC)c(NC2CCOCC2)c1CNC(=O)c1cccc(C(=O)NCc2ccc(C)c(-c3cccc(CN4CCNCC4)c3)c2)c1`: the melting point lay within 135 to 138 °C.

On to `O=c1cc(-c2nc3ccccc3[nH]2)oc2ccccc12`, for which the melting point came to 232 °C.

For the compound `CC(C)(C)NC(=O)N1CC(Oc2ccc(C(F)(F)F)cc2)C1`, the melting point fell in the range of 145 to 146 °C.

For the compound `O=C(CC1NCCCC1O)Cn1cnc2cc(Br)c(Cl)cc2c1=O` (configuration not stated), the melting point is 205 °C.

Compound `CCCCCCCOCC1OC1CO` (configuration not stated) yielded a melting point of 50 to 52 °C.

As for `CC(C)(C)OC(=O)NCCCCC(=O)N1CCC(c2[nH]nc3c2C(=O)c2c(NC(=O)NN4CCOCC4)cccc2-3)CC1`, the melting point was in the range of 98 to 99 °C.

`COC(=O)c1ccn(C)c1S(=O)(=O)NC(C)(C)C` gave a melting point of 105 to 108 °C.

As to `Cc1sc(C(=O)O)c(SC(C)C)c1Br`, the melting point fell in the range of 132 to 134 °C.

As for `CN(C=O)c1cc(F)ccc1C(=O)CS(C)(=O)=O`, the melting point lay within 94.5 to 95.5 °C.

Take `Cc1nc(-c2ccc(Cl)cc2)n(-c2ccc(S(N)(=O)=O)cc2)n1`: the melting point lay in the range of 247 to 249 °C.

Regarding `CNC(=O)c1cccc2cccc(NC(=O)c3ccc(F)c(F)c3)c12`, the melting point is greater than 250 °C.

With `CN(CC(=O)O)C(=O)CCS`, the melting point lay in the range of 157 to 158 °C.

Compound `CCOC(=O)C1CC1c1cc(=O)c2ccc3ccccc3c2o1` (configuration not stated) returned a melting point of 106 °C.

For `O=C(O)c1ncn2c(C(F)F)cc(-c3ccc(C(F)(F)F)cc3)nc12`, the melting point amounted to 238 °C.

Turning to `CCOC(=O)c1c(N)oc(-c2ccc([N+](=O)[O-])cc2)c1C(=O)OCC`, the melting point was 174 to 177 °C.

The compound `Cc1cc(Oc2cccc(C(F)(F)F)c2)nn1C(=O)Nc1ccccc1` returned a melting point of 53 to 54 °C.

Turning to `CN(C(=O)C(F)(F)F)c1cnc(-c2cncc(F)c2)s1`, the melting point is 168 to 170 °C.

As for `O=C(Nc1ccc2ccc(Br)nc2n1)c1ccc(F)cc1`, the melting point was 228 °C.

As for `COc1cc(C)c2c(Cl)c(OC)cc([N+](=O)[O-])c2n1`, the melting point fell in the range of 199 to 200 °C.

With `CC(C)(C)OC(=O)N1CCc2c(n(CCOc3ccc(F)cc3)c3ccc(Cl)c(Cl)c23)CC1`, the melting point lay in the range of 164 to 166 °C.

On to `CCCN(CCC)CC(=O)OC1CC2(C)C(C(=O)CO)CCC2C2CCC3CC(O)CCC3(C)C12` (configuration not stated), for which the melting point was 98 to 102 °C.

Take `COc1cc(-c2n[nH]c(SC)c2C)c(F)cc1Cl`: the melting point lay in the range of 95 to 100 °C.

The compound `COc1cc(C=CC=C2OC(=O)NC2=O)ccc1OCc1coc(-c2ccccc2)n1` gave a melting point of 227 to 228 °C.

The compound `COc1cccc(NC(=O)c2cc(C)sc2Br)c1O` showed a melting point of 169 to 172 °C.

In turn, `CC(C)(C)OC(=O)N1CCN(c2cc(Cl)ccc2NC(=O)c2ccnc(Cl)c2)CC1` returned a melting point of 185 to 189 °C.

Compound `CNc1ccc(S(=O)(=O)Nc2ccccc2)cc1` gave a melting point of 113 to 114 °C.

The compound `O=C(O)CCC(=O)CC(=O)c1cccnc1` had a melting point of 156 to 158 °C.

Compound `C=C(C)C(=O)OCCCCCCOc1ccc(C(=O)Oc2ccc(/C=C/C(=O)OC)cc2OC)cc1` displayed a melting point of 92 to 94 °C.

Compound `CNc1c(F)cc2c(=O)c(C(=O)O)cn(-c3cc(N)c(F)cc3F)c2c1OC` displayed a melting point of 225 to 227 °C.

The compound `CCC(C)(N=NC(C)(CC)NC(=O)NC1CCCCC1)NC(=O)NC1CCCCC1` (configuration not stated) came in with a melting point of 110 to 113 °C.

Take `CCOC(Cc1c(N(C(C)=O)C(C)=O)nc(NC(C)=O)[nH]c1=O)OCC`: the melting point fell in the range of 128 to 130 °C.

`COc1cc(C(C)=O)ccc1OCCCCN1CCN(c2nsc3ccccc23)CC1` had a melting point of 114 to 116 °C.

`COc1ccc(CNc2nc(Cl)c3ncn(Cc4ccc(OC)cc4)c3n2)cc1` displayed a melting point of 161 to 164 °C.

Consider `CN1C(=O)C(C)(C)N=C(c2ccccc2F)c2cc(NC(=O)OCc3ccccc3)cc(Cl)c21`, for which the melting point was in the range of 125 to 127 °C.

In turn, `O=C1Nc2cccnc2N(C(=O)CCN2CCN(Cc3ccccc3)CC2)c2ccccc21` yielded a melting point of 205 to 207 °C.

With `CC1CC(=O)NN=C1c1ccc(-n2ccnc2)nc1` (configuration not stated), the melting point was determined as 140 °C.

On to `CC(C)(C)c1nn(-c2c(Cl)cc(C(F)(F)F)cc2Cl)c(Cl)c1-c1nc(C#N)c(C#N)[nH]1`, for which the melting point lay in the range of 118 to 120 °C.

Compound `COc1ccccc1Nc1nc(N)nc2c(OC)cccc12` displayed a melting point of 243 to 244 °C.

`Cc1nc(N2C[C@@H](Cc3ccccc3)NC2=O)sc1C(=O)NCc1ccccc1` showed a melting point of 212 to 214 °C.

Compound `N#Cc1ccc2c(c1)C(c1ncnc3nn(C4CCCCC4)cc13)C(=O)N2` (configuration not stated) yielded a melting point greater than 325 °C.

On to `CCC(CC)(CCS(N)(=O)=O)COc1nn2ncnc2cc1C`, for which the melting point lay within 148 to 149 °C.

Compound `CCOC(=O)CN(c1ccc(Cl)cc1C(O)c1ccccc1Cl)S(=O)(=O)c1ccc(OC)c(OC)c1` (configuration not stated) came in with a melting point of 86 °C.

In the case of `O=C(O)c1cc(Oc2ccc(Cl)cc2Cl)ccc1Br`, the melting point fell in the range of 132 to 133 °C.

With `Cn1nc2c(N)nc3ccccc3c2c1CC(C)(C)C`, the melting point fell in the range of 254 to 255 °C.

With `COc1cscc1C(=O)NN`, the melting point is 91 to 92 °C.
